Data published in patent US20060166316A1, “Phosphodiesterase 10a7 isoforms and methods of use” (Memory Pharmaceuticals Corporation, priority 2003, published 2006).

Experiments:
mmPDE10A7 [1] = biological target: T1, mmPDE10A7 (Mus musculus, UniProt Q8CA95, M75I); experiment: Km determination with [3H]-cAMP/cAMP or [3H]-cGMP/cGMP; assay type: biochemical; details: substrate of mmPDE10A7; 30 minutes at room temperature, pH 8.0
T1 construct: Full-length mmPDE10A7 cDNA cloned in the pENTR vector was recombined to pDEST™8; made in house; host or cells: Sf9 insect cells (baculovirus, pDEST8 / DH10BAC); used as crude cell lysate supernatant, dialysed for IMAP
T1 sequence (Q8CA95 with tags, fused parts or gaps M75I): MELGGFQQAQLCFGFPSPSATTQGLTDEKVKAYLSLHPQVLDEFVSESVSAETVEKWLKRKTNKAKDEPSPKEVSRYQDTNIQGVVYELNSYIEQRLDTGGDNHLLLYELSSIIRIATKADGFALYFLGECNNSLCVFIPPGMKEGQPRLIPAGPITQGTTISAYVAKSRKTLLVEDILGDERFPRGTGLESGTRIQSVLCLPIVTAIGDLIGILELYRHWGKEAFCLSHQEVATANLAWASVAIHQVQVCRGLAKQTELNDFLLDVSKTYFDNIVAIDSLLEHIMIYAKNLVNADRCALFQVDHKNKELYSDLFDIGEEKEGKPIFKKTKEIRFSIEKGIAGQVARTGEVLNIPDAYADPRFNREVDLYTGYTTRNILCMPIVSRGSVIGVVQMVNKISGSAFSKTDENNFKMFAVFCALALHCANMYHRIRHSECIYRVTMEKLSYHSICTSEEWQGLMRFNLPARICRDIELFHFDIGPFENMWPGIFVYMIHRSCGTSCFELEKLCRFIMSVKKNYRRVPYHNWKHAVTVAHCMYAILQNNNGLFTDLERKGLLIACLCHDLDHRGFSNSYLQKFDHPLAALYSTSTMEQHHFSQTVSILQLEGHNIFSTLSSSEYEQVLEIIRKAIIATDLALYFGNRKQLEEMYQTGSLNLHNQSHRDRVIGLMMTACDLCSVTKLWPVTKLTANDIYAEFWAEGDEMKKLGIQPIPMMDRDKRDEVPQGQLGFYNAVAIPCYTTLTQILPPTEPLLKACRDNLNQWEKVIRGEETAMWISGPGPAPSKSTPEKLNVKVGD
Description: (§1) Full-length mmPDE10A7 cDNA cloned in the pENTR vector was recombined to pDEST™8 by clonase in DH5α competent bacteria (Invitrogen). DH10BAC, the competent bacteria containing baculovirus genome, was then transformed with the pDEST™8-mmPDE10A7. The white colonies were selected in the presence of gentamicin, kanamycin, tetracycline, Bluogal and IPTG and were confirmed by PCR. Log-phase sf9 cells were then transfected with recombinant baculovirus DNA by the method of Cellfectin in a 6-well plate. Forty-eight to seventy-two hours after the transfection, 0.5 ml medium from the transfected cell plate was added into a 175-cm^2 flask containing 2×10^7 sf9 cells for further amplification of the recombinant baculovirus. The sf9 cells were collected 48 hours after infection.
(§2) To prepare the cell lysate, the sf9 cells expressing mmPDE10A7 were resuspended in cell lysis buffer containing Tris/HCl (pH 7.5) 50 mM, NaCl 10 mM, EGTA 5 mM, EDTA (pH 8.0) 1 mM, DTT 1 mM, Protease Inhibitor Cocktail (Roche) 1 tablet per 50 ml buffer. The cell suspension was then homogenized with a Polytron (PT2100) at speed 20 for 20 seconds on ice and centrifuged at 10,000×g for 20 minutes. The supernatant was then collected and stored at −80° C.

mmPDE10A7 [2] = biological target: T1, mmPDE10A7; experiment: IMAP fluorescence polarization compound inhibition assay; assay type: biochemical; details: recombinant mmPDE10A7 in sf9 cell lysate
Description: as §1, §2
Then, the cassette was placed in 1 liter of fresh assay buffer and continued to dialyze for 2 more hours at 4° C. After the second dialysis, the cell lysate was recovered with a clean syringe and stored at −80° C.
An IMAP Assay kit (Molecular Device) was used to assess enzyme properties of mmPDE10A7. […] Both the enzyme and the substrates were diluted in the following assay buffer: Tris/HCl (pH 8.0) 50 mM, MgCl2 5 mM, 2-mercaptoethanol 4 mM, BSA 0.33 mg/ml. After incubation, the reaction was stopped by adding 20 μl of diluted (400-fold) binding reagents and was incubated for an hour at room temperature. Then, the plates were counted in Analyst GT (Molecular Device) for fluorescence polarization. The data were analyzed with SoftMax Pro. The high end (EC80 to EC100) of the linear range was served as the working enzyme concentration for compound inhibition assays.
Then, the reaction was stopped by adding 20 μl of diluted binding reagents and counted in Analyst GT for fluorescence polarization.

[3] = fluorescein labeled cAMP substrate
[4] = fluorescein labeled cGMP substrate

Structure (SMILES): Nc1nc2c(ncn2[C@@H]2O[C@@H]3COP(=O)(O)O[C@H]3[C@H]2O)c(=O)[nH]1 [cGMP, cyclic guanosine 5′ monophosphate]
- Km (mmPDE10A7 [1]): 3.7 µM

Structure (SMILES): Cc1[nH]c(=O)c(C#N)cc1-c1ccncc1 [milrinone]
- IC50 (mmPDE10A7 [2]; [3]): No inhibition
- IC50 (mmPDE10A7 [2]; [4]): No inhibition

Structure (SMILES): COc1ccc(Cc2nccc3cc(OC)c(OC)cc23)cc1OC [papaverine]
- IC50 (mmPDE10A7 [2]; IC50, fluorescein labeled cAMP substrate): 44 nM
- IC50 (mmPDE10A7 [2]; IC50, fluorescein labeled cGMP substrate): 22 nM

Structure (SMILES): CCOC(=O)C1=C[C@]2(CC)CCCN3CCc4c(n1c1ccccc41)[C@@H]32 [vinpocetine]
- IC50 (mmPDE10A7 [2]; [3]): No inhibition
- IC50 (mmPDE10A7 [2]; [4]): No inhibition
